Measurements from patent US7790143B2, “Vaccines for immunization against helicobacter” (priority 2005, dated 2010).

What was measured:
Design in all cases: key: R: resistant; S: susceptible; I: intermediate
H. baculiformis M50T = experiment: Susceptibility to antimicrobials (30 μg); type: cell-based; settings: taxon 1 H. baculiformis (this study)
Source text: Data were obtained from Bronsdon et al. (1991), Dewhirst et al. (2000a), Eaton et al. (1993), Fox et al. (1988, 1995), Hänninen et al. (1996, 2005), Jalava et al. (1997) Int J Syst Bacteriol 47, 975-982, Lee et al. (1988, Infect Immun 56, 2843-2850, 1992), Mendes et al. (1996); Patterson et al. (2000), Van den Buick et al. (2006, Int J Syst Evol Microbiol 56, 1559-1564).

H. bizzozeronii = settings: 30 μg; taxon 3 H. bizzozeronii; cited from earlier work
H. felis = settings: 30 μg; taxon 4 H. felis; cited from earlier work
H. salomonis = settings: 30 μg; taxon 5 H. salomonis; cited from earlier work
H. pylori = settings: 30 μg; taxon 6 H. pylori; cited from earlier work
H. acinonychis = settings: 30 μg; taxon 7 H. acinonychis; cited from earlier work
H. bilis = settings: 30 μg; taxon 8 H. bilis; cited from earlier work
H. trogontum = settings: 30 μg; taxon 9 H. trogontum; cited from earlier work
H. mustelae = settings: 30 μg; taxon 10 H. mustelae; cited from earlier work
H. nemestrinae = settings: 30 μg; taxon 11 H. nemestrinae; cited from earlier work
H. muridarum = settings: 30 μg; taxon 12 H. muridarum; cited from earlier work
H. aurati = settings: 30 μg; taxon 13 H. aurati; cited from earlier work

Measured: Susceptibility to

CC(=O)OCC1=C(C(=O)O)N2C(=O)[C@@H](NC(=O)Cc3cccs3)[C@H]2SC1 [Cephalothin]
S: H. bizzozeronii | H. felis | H. salomonis | H. pylori | H. acinonychis | H. nemestrinae
R: all other assays above

CCn1cc(C(=O)O)c(=O)c2ccc(C)nc21 [Nalidixic acid]
I: H. baculiformis M50T
S: H. mustelae | H. aurati
R: all other assays above
